The text below walks through data of patent publication US7718768B2, “Biologically active peptide [sequence]” (CMS Peptides Patent Holding Company Limited, priority 2001, dated 2010).

Experiment [1] concerns ascitic fluid type liver cancer H22. The experiment can be described thus: survival of mice with transplanted ascitic fluid type liver cancer H22. It is filed as in vivo, BALB/c mice. The settings on record: for Survival index: versus saline group. The protocol:
(§1) Intraperitoneal injection, once per day. […] Treatment of all groups with testing substance lasted for 30 days or until the animal died unless otherwise specified.
Stock H22 cells were incubated in DMEM/F12 medium supplemented with 10% fetal bovine serum, 37° C./5% CO2 for 72 hrs, then washed 3-4 times with Hank's solution at room temperature. Adjust cell concentration to 1-2×10^9 per liter with Hank's solution. 0.2 ml of the cell suspension was implanted to the abdominal cavity of several BALB/c mice for 6-8 days. The mice were killed by cervical vertebra dislocation. Ascitic fluid of the mice was collected asceptically and the cell concentration adjusted to 1×10^6 per ml with Hank's solution. 0.2 ml of the cell suspension was implanted into the abdominal cavity of healthy mice to generate the H22 carrying mouse model for ascitic fluid type liver cancer. Administration of test substance started as described in section Method 1. Survival data of the mice was recorded. If the animal survived longer than the experiment, the survival days was recorded as the duration of the experiment. Mean survival day was obtained by the Kaplan-meier method in the Survival option of the SPSS software. The survival index was calculated according to the following formula: Survival index(mean survival days in treatment group−mean survival days of control group)÷mean survival days of control group×100% 4. The Effect of Peptides on the Cellular Immunity of BALB/c Mice with Transplanted Ascitic Fluid Type Liver Cancer H22 4.1 Preparation of Spleen Cell Suspension^[1,4]

The subject of another experiment is NK cell. The experiment can be described thus: NK cell activity in mice with ascitic fluid type liver cancer H22. It is filed as in vivo, BALB/c mice. The method, then: Healthy BALB/c mice were randomized into peptide group, rmIFN-γ group, rhIL-2 group, and saline group, 15 mice per group, and prepared into H22 carrying mice model as described in section Method 3. After implantation of the cancer cells, the test substances were administered for 15 days, the mice were killed by cervical dislocation. The spleen was isolated aseptically and manually dispersed in cold D-Hank's solution using an injection needle. The dispersed cell suspension was further sieved through a 100-gauge 150 μm diameter stainless steel sieve. After centrifugation at 200 g for 10 minutes, the supernatant was discarded. The cell pellet was re-suspended in 10 volume of Tris-NH4Cl buffer and then kept standing still for 10 minutes at room temperature. The suspended cells were collected by centrifugation at 150 g for 10 minutes. The cells were washed 2-4 times with cold D-Hank's solution by re-suspending and collecting by centrifugation with condition as described above. The washed cells were then diluted to the desired cell densities by RPMI-1640 culture medium, containing 10% fetal bovine serum.
Mice spleen cells were prepared to 4×10^6/ml as described in section 4.1 above. Target cells YAC-1 were brought to log phase and adjusted to 1×10^5/ml. Using a 96 wells cell culture plate, 100 μl mouse spleen cells and 100 μl culture medium were added to the control well containing only the spleen cells; 100 μl target cells and 100 μl culture medium were added to the control well containing only target cells; 100 μl mouse spleen cells and 100 μl target cells were added to the NK activity assay well. Three parallel sets of the above were prepared per mouse. After that, the 96 wells cell culture plates were incubated for 4 hrs at 37° C., 5% CO2.
Samples were centrifuged at 150 g for 10 minutes to collect the cells. The supernatant was discarded and 50 μl/well MTT of 1 mg/ml was added. The reaction-mixture was then shaken for 2 minutes, and incubated at 37° C., 5% CO2 for 4 hours. The supernatant was discarded after centrifugation at 150 g for 10 minutes. 120 μl 40 mM HCl-2-propanol was added and shaken for 3 minutes. An ELISA reader was used to obtain OD570nm of each well referenced at 630 nm.
The NK cell activity index of each mouse was obtained by first deriving the average OD of the three parallel wells of each combination, then applying this average OD to the following formula: NK cell activity index=[1−(average OD of spleen and target cell well−average OD of spleen cell only well)÷(average OD of target cell only well)]×100% 5. The Effect of Peptides on the Survival of DBA/2 Mice with Transplanted L1210 Leukemia

A further experiment has as its system L1210 leukemia. The experiment can be described thus: survival of mice with transplanted L1210 leukemia. It counts as in vivo, DBA/2 mice. The conditions noted are these: for Survival index: versus saline group. The method, then:
as §1
Stock L1210 cells were incubated in DMEM/F12 medium supplemented with 10% fetal bovine serum, 37° C./5% CO2 for 72 hrs, then washed 3-4 times with Hank's solution, and adjusted to 1×10^5 cells per liter. 0.1 ml of the cell suspension was implanted into the abdominal cavity of several healthy DBA mice for 6-8 days. The mice were then killed by cervical vertebra dislocation and their ascitic fluid collected aseptically. The cell concentration of the collected ascitic fluid was adjusted to 1×10^5 per ml with Hank's solution. 0.1 ml of the cell suspension was implanted into each of the testing animal and the survival data of the animals recorded. Treatment started in the testing animals as described in section Method 1. Mean survival day was obtained by the Kaplan-meier method in the Survival option of the SPSS software. If the animal survived longer than the experiment, the survival days was entered as the duration of the experiment. The survival index was calculated according to the following formula: Survival index=(mean survival days of treatment group−mean survival days of control group)÷mean survival days of control group 6. The Effect of Peptides on the Humoral Immunity of C57BL/6 Mice Bearing Transplanted B16 Melanoma, and that on the Metastatic Potential of the Inoculated Melanoma Cells

The subject of a further experiment is S180 sarcoma cells. The experiment can be described thus: growth of transplanted S180 sarcoma. It is filed as in vivo, BALB/c mice. The settings on record: for Tumor inhibition index: versus saline group. The method, then:
as §1
Stock S180 sarcoma cells were incubated in DMEM/F12 medium supplemented with 10% fetal bovine serum, 37° C., 5% CO2 for 72 hrs, then washed 3-4 times with Hank's solution at room temperature. Adjust the cell concentration to 1-2×10^9 per liter with Hank's solution. […] The mice were killed by cervical vertebra dislocation. Vigorously growing and non-disrupted tumor masses were harvested and washed clean with sterile saline. The tissue was dispersed in saline to a homogenous cell suspension, in a ratio of 1 g tissue to 4 ml saline. The sarcoma bearing mice model was prepared with an injection of 0.2 ml cell suspension through the armpit. Administration of test substance treatment started as described in section Method 1.
After the phagocytosis index study, the mice were killed by cervical vertebra dislocation. The liver, spleen, and cancer tissue were dissected, blotted dry, and weighed.
2.2 The Tumor Growth Inhibition Index was Calculated According to the Following Formula: Tumor growth inhibition index=(mean tumor weight of control group−mean tumor weight of treatment group)÷mean tumor weight of control group 3.

[2] abbreviates: 3 × 10^5 IU/kg i.p. once per day.

Marks after values point to notes of the source that are not given here. No end group written: not given here.

Consider “Tyr Ser Leu (YSL; listed as Sus scrofa) [CMS024]”, for which the Survival days is 46.4 ± 14.8*^^&$ days in experiment [1] (0.5 μg/kg i.p. once per day), 40.6 ± 14.6*^&$ days in experiment [1] (5 μg/kg i.p. once per day) and 36.3 ± 12.7*^&$ days in experiment [1] (50 μg/kg i.p. once per day). In addition, the values for the Survival index in experiment [1] (0.5 μg/kg i.p. once per day), in experiment [1] (5 μg/kg i.p. once per day) and in experiment [1] (50 μg/kg i.p. once per day) were 76.9%, 54.8% and 38.4%, respectively. Moreover, in experiment [1] (0.5 μg/kg/day), the “postmortem examination of the long-surviving mice” value is “did not show sign of tumor establishment”. Moreover, the “share of mice surviving longer than 90 days” value in experiment [1] (0.5 μg/kg/day, n=6, two months after the experiment ended) was “more than 30%”. The NK activity index with NK cell (0.5 μg/kg i.p. once per day) is recorded as 39.3 ± 18.7*^$ %; in the experiment with NK cell (5 μg/kg i.p. once per day) it was 34.9 ± 12.1*^^$ %; in the experiment with NK cell (50 μg/kg i.p. once per day) it was 43.6 ± 13.9*^^$& %.
For VGMGQKDSY [CMS019], in the experiment on L1210 leukemia (0.5 μg/kg i.p. once per day), the Survival days stood at 21.1 ± 5.8 days and the Survival index stood at 26.8%.
Take “Phe Glu Glu Glu (FEEE; listed as Sus scrofa) [CMS032]”: in experiment [1] (0.5 μg/kg i.p. once per day), the Survival days was 42.8 ± 12.2*^^&$ days and the Survival index amounted to 63.3%. Moreover, the NK activity index in the experiment on NK cell (5 μg/kg i.p. once per day) is recorded as 52.6 ± 12.5*^^$& %. The NK activity index in the experiment on NK cell (50 μg/kg i.p. once per day) is recorded as 41.0 ± 18.7*^^$& %.
As to RVAPEEHPTL [CMS011], in experiment [1] (5 μg/kg i.p. once per day), the Survival days is reported as 36.4 ± 22.2*^& days and the Survival index worked out at 60.2%.
In the case of “Phe Val Asn Asp (FVND; listed as Sus scrofa) [CMS035]”, in the experiment on L1210 leukemia (0.5 μg/kg i.p. once per day), the Survival days was found to be 29.3 ± 15.4 days and the Survival index is on record as 76.1%. In the experiment with S180 sarcoma cells (5 μg/kg i.p. once per day), this molecule had a Tumor weight of 0.71 ± 0.37 g and a Tumor inhibition index of 44.6%.
In the case of VAPEEHPTLLTEAPLNPK [CMS010], in the experiment on S180 sarcoma cells (500 μg/kg i.p. once per day), the Tumor weight amounted to 0.67 ± 0.35 g and the Tumor inhibition index stood at 48.4%.
For “Pro Glu Asn Phe (PENF; listed as Sus scrofa) [CMS034]”, the NK activity index in the experiment with NK cell (50 μg/kg i.p. once per day) was 57.3 ± 17.9*^^$& %. Also, in the experiment with S180 sarcoma cells (0.5 μg/kg i.p. once per day), the Tumor weight stood at 0.83 ± 0.48 g and the Tumor inhibition index is given as 35.9%.
For FNFVPP [CMS003], in the experiment with NK cell (500 μg/kg i.p. once per day), the NK activity index is reported as 37.9 ± 14.5*^^$ %.
On to KAVGHLDDLPGAL [CMS008], for which, in experiment [1] (5 μg/kg i.p. once per day), the Survival days is given as 50.7 ± 20.9*^& days and the Survival index was determined as 67.8%.

B1: IFN-γ: recombinant mouse interferon-γ, Beijing Biotech Inc.; positive control immunostimulant (protein, UniProt P01580 23-155, looked up)
Interferon gamma: HGTVIESLESLNNYFNSSGIDVEEKSLFLDIWRNWQKDGDMKILQSQIISFYLRLFEVLKDNQAISNNISVIESHLITTFFSNSKAKKDAFMSIAKFEVNNPQVQRQAFNELIRVVHQLLPESSLRKRKRSRC
On to B1, for which, in experiment [1] (setting [2]), the Survival days worked out at 27.8 ± 7.5 days and the Survival index stood at 6.1%. In addition, in the experiment with L1210 leukemia (setting [2]), the Survival days was 15.6 ± 2.2 days. Moreover, in the experiment on NK cell (setting [2]), the NK activity index is 20.9 ± 3.3%. Further, in the experiment with S180 sarcoma cells (setting [2]), the Tumor weight was 0.96 ± 0.45 g and the Tumor inhibition index is on record as 25.3%.
